Test results taken from patent US4795754A, “3-(1H-tetrazol-5-y1)oxanilic acid and salts thereof and pharmaceutical compositions containing them” (Wakamoto Pharmaceutical Co., Ltd., priority 1986, dated 1989).
Read-outs that look alike come from different tables or passages of the source.

Columns and labels:
[1] = system: allergic conjunctivitis of guinea pigs; assay: Allergic conjunctivitis, histamine content in lacrimal fluid (Test 4); format: in vivo, Hartley guinea pigs
Method: (§1) This test was carried out to estimate the therapeutic effect of the compounds according to the present invention on the allergic conjunctivitis of guinea pigs.
(§2) Hartley guinea pigs were passively sensitized by intravenously injecting 1 ml of anti-DNP-As serum. After 8 days, an antigen solution (DNP-BSA: 2.5 mg/ml) was dropped on the sinistral eye once a minute over 10 minutes, then the lacrimal fluid was collected with filter paper over 10 minutes while the inflammatory reaction of the eye was visually observed during the collection of the lacrimal fluid. At 10 minutes after the completion of the dropping of the antigen solution, the compounds to be examined were dropped on the eye once a minute over 10 minutes and thereafter the collection of the lacrimal fluid and the visual observation of the inflammatory reaction of the eye were likewise effected. Then, the amount of histamine present in the collected lacrimal fluid was determined according to the Komatsu's method (Michitoshi KOMATSU, Allergy, 1978, Vol. 27, pp. 67-74).
(§3) In addition, the concentration of MTCC used was 10^-3 g/ml and that of DSCG was 2×10^-2 g/ml.

[2] = system: metachromatic cells in nasal mucus; assay: Degranulation inhibitory effect on metachromatic cells in nasal mucus, experimental allergic rhinitis (Test 2); format: in vivo, Wistar rats; settings: intranasal 0.5 ml/100 g, 5 minutes before antigen, average of 5
Method: This test was carried out to examine the degranulation inhibitory effect of the compounds of the present invention on the metachromatic cells in nasal mucus originated from a rat suffering from experimental allergic rhinitis.
Wistar rats were passively sensitized by subcutaneously injecting anti-Cryptomeria Japonica-Ascaris serum of rat. After anesthetizing the rat with pentobarbital sodium, they were fixed while lying them on their back and the cervixes thereof were subjected to median incision. A polyethylene tube having an outer diameter of 1 mm was inserted into the internal nares of each rat through the incised portion of trachea, one end thereof was connected to a perfusion pump and sterilized physiologic saline warmed at 37° C. was perfused therethrough at a flow rate of 0.25 ml/min. 1 ml of the antigen extracted from pollen of Japanese cedar (10 micro liter per ml) was sprayed in both internal nares by means of an atomizer for internal nares and the perfusate delivered from the internal nares was recovered for 20 minutes. The number of degranulated cells per 100 metachromatic cells present in the recovered samples were scored and the value was regarded as that of the control (Nc).
The compound to be tested were dissolved in 0.15M phosphate buffer so as to obtain a solution of a desired concentration, each solution was administered through both of the interanal nares in an amount of 0.5 ml/100 g body weight, at a time 5 minutes before the spray of the antigen and the number of degranulated cells (Nt) was scored according to the same manner as described above. The rate of inhibitory effect on the degranulation (Rd) was estimated from the following relation: [formula] Each experimental results is the average of 5 measurements.

[3] = system: allergic conjunctivitis of guinea pigs; assay: Allergic conjunctivitis, visual observation of inflammatory reaction of the eye (Test 4); format: in vivo, Hartley guinea pigs; settings: MTCC 10^-3 g/ml, DSCG 2×10^-2 g/ml, dropped on the eye after antigen
Method: as §1, §2, §3

[4] = system: rats suffering from experimental allergic rhinitis; assay: Nasal mucus secretion inhibitory effect, experimental allergic rhinitis (Test 3); format: in vivo, Wistar rats; settings: brilliant blue in nasal perfusate, average of 5
Excerpt: This test was effected to examine the nasal mucus secretion inhibitory effect of the compounds according to the present invention on the rats suffering from experimental allergic rhinitis.
Wistar rats were passively sensitized by subcutaneously injecting anti-Cryptomeria Japonica-As serum of rat. After anesthetizing the rat with pentobarbital sodium, they were fixed while lying them on their back and the cervixes thereof were subjected to median incision. A polyethylene tube having an outer diameter of 1 mm was inserted into the internal nares of each rat through the incised portion of trachea, one end thereof was connected to a perfusion pump and sterilized physiologic saline warmed at 37° C. was perfused therethrough at a flow rate of 0.25 ml/min.
Then, 0.5 ml/100 g body weight of 4% brilliant blue was injected into the rat through the caudal vein, then the perfusate was recovered for 10 minutes and the concentration of the dye was determined which was regarded as the Ag (-) value of the control. 1 ml of the antigen extracted from pollen of Japanese cedar (1 micro liter per ml) was sprayed in both internal nares by means of an atomizer for internal nares, the antigen remaining in the internal nares was washed out with physiologic saline and the perfusate was then recovered for 30 minutes and the concentration of the dye was determined to estimate Ag (+) value of the control.
The compound to be tested were dissolved in 0.15 M phosphate buffer so as to form a solution of a desired concentration. Each of the solutions thus prepared was sprayed in both internal nares in an amound of 0.5 ml/100g body weight at the time of 5 minutes before the spray of the antigen and the concentration of the dye was determined on each sample. In this connection, the measurement of the dye concentration was effected according to the spectrophotometric method developed by M. Kojima et al. (Allergy, 1986, Vol. 35, pp. 180-187).

[5] = Japanese Journal of Pharmacology, 1982, Vol. 32, pp. 689-697; cited from earlier work
[6] = Water solubility / hydrophilicity (statement in words); format: physicochemical
[7] = Acute toxicity test, dog (Test 5); format: in vivo; settings: dog, in vivo, po; Male, p.o. (capsule); 14 days observation
Method: (§4) MTCC was administered to ddY Mice (body weight 20 to 23 g; 10 animals per test group) and Wistar rats (body weight 110 to 130 g; 10 animals per test group) through intravenous and oral routes and it was also administered to Beagle dogs (7 months old; 3 animals per test group) through oral route.
(§5) MTCC was administered to rats and mice in the form of a solution thereof in 0.1 M phosphate buffer in the case of intravenous administration and in the form of a suspension in 0.5% CMC-Na in the case of oral administration. While it was orally administered to dogs in the form of a capsule filled with the original powder.

Dog = assay: Acute toxicity test, dog (Test 5); format: in vivo; settings: Female, p.o. (capsule); 14 days observation
Method: as §4, §5

[8] = Acute toxicity test, mouse (Test 5); format: in vivo; settings: mouse, in vivo, Male, 14 days observation
Method: as §4, §5

Mouse = assay: Acute toxicity test, mouse (Test 5); format: in vivo; settings: Female, 14 days observation
Method: as §4, §5

[9] = Acute toxicity test, rat (Test 5); format: in vivo; settings: rat, in vivo, Male, 14 days observation
Method: as §4, §5

Rat = assay: Acute toxicity test, rat (Test 5); format: in vivo; settings: Female, 14 days observation
Method: as §4, §5

[10] = After Dropping of Antigen (before compound)
[11] = After Dropping of Compound, MTCC 10^-3 g/ml, DSCG 2×10^-2 g/ml

| SMILES | Histamine Content in Lacrimal Fluid [1, 10] | Histamine Content in Lacrimal Fluid [1, 11] | Rate of Inhibition of Degranulation Rd (%) ([2]; Concn. 10^-4 g/ml) | Rate of Inhibition of Degranulation Rd (%) ([2]; Concn. 10^-5 g/ml) | Rate of Inhibition of Degranulation Rd (%) ([2]; Concn. 10^-6 g/ml) | Rate of Inhibition of Degranulation Rd (%) ([2]; Concn. 10^-7 g/ml) | Rate of Inhibition of Degranulation Rd (%) ([2]; Concn. 10^-8 g/ml) | Therapeutic effect on swelling and congestion of the conjunctiva (visual observation) [3] | Dye Concentration ([4]; Concn. 10^-4 g/ml) | Dye Concentration ([4]; Concn. 10^-5 g/ml) | Dye Concentration ([4]; Concn. 10^-6 g/ml) | Dye Concentration ([4]; Concn. 10^-7 g/ml) | Dye Concentration ([4]; Concn. 10^-8 g/ml) | other results |
| --- | --- | --- | --- | --- | --- | --- | --- | --- | --- | --- | --- | --- | --- | --- |
| O=C(O)c1cc(=O)c2c(OCC(O)COc3cccc4oc(C(=O)O)cc(=O)c34)cccc2o1 [DSCG, Disodium Chromoglycate, reference compound] | 6.7 ng | 6.4 ng | 90.3% | 71.5% | 39.4% | 8.1% | -1.7% | relatively low therapeutic effect | 0.65 micro gr./ml | 0.89 micro gr./ml | 1.01 micro gr./ml | 1.44 micro gr./ml | 1.77 micro gr./ml |  |
| CCCCOC(=O)C(=O)Nc1cccc(-c2nnn[nH]2)c1 [MTB, Butyl 3(1H--tetrazol5-yl)oxanilate] |  |  |  |  |  |  |  |  |  |  |  |  |  | Water solubility (in words) [5]: hydrophobic or less soluble in water |
| O=C(O)C(=O)Nc1cccc(-c2nnn[nH]2)c1 [MTCC, 3-(1H-tetrazol-5-yl)oxanilic acid] | 6.3 ng | 2.4 ng | 94.3% | 75.1% | 33.0% | 15.0% | -1.4% | excellent therapeutic effect | 0.64 micro gr./ml | 0.85 micro gr./ml | 0.99 micro gr./ml | 1.37 micro gr./ml | 1.74 micro gr./ml | Water solubility (in words) [6]: hydrophyilic or soluble in water; Histamine content in the lacrimal fluid (in words) ([1]; by the administration of MTCC, 10^-3 g/ml): substantially reduced; LD50 at 336 h [7]: > 2000 mg/kg; Acute Toxicity LD50 (Dog): > 2000 mg/kg; LD50 at 336 h ([8]; iv): > 225 mg/kg; LD50 at 336 h ([8]; po): > 2000 mg/kg; Acute Toxicity LD50 (Mouse; i.v.): > 225 mg/kg; Acute Toxicity LD50 (Mouse; p.o.): > 2000 mg/kg; LD50 at 336 h ([9]; iv): > 180 mg/kg; LD50 at 336 h ([9]; po): > 2000 mg/kg; Acute Toxicity LD50 (Rat; i.v.): > 180 mg/kg; Acute Toxicity LD50 (Rat; p.o.): > 2000 mg/kg |
